Experimental findings from ChEMBL document CHEMBL3507680, “University of Dundee, Gates Library screen for HepG2 cell viability” are described below.

This data set is described as follows: Human HepG2 cell viability assay in 384 well format. Type of data set: toxicity, cell-based. On the set-up: dose 125 nL, time 70.5 hour; concentration not given beside the values. The conditions noted are these: HepG2 cells, read-out: Inhibition.
On to `Cc1cccc(N2CCN(Cc3nc(CC4CC4)no3)CC2)n1`, for which the cytotoxicity at 70.5 h was 1.5%.

With `Cc1nc2c(c(N3CCC4(CCCNC4=O)C3)n1)CCC2` (stereo not given), the cytotoxicity at 70.5 h is -4.16%.

In the case of `CC(=O)N1Cc2cnc(C(C)(C)C)nc2C1`, the cytotoxicity at 70.5 h came out at 19.2%.

With `Cc1nnc(SCCCNC(=O)c2ccc3c(c2)OCO3)s1`, the cytotoxicity at 70.5 h was -9.91%.

For `O=C1C[C@H]2CC[C@@H](CN1)N2C(=O)Cc1ccsc1`, the cytotoxicity at 70.5 h is -8.54%.

As for `CN1N=C(C(=O)N2CCCC(CCc3ccccc3)C2)CCC1=O` (stereo not given), the cytotoxicity at 70.5 h is -9.61%.

With `Cc1ccccc1C(=O)NC[C@@H]1CCN(C(=O)c2cscn2)C[C@H]1O`, the cytotoxicity at 70.5 h was 18.9%.

`CCCc1ccc(C(=O)N2CCc3c(nc(C)nc3N(C)C)C2)cc1`: the cytotoxicity at 70.5 h is -0.957%.

For the compound `CCOCC(=O)N1C[C@H]2CC[C@@H]1CN(C(=O)c1ccncc1)C2`, the cytotoxicity at 70.5 h was -1.67%.

Turning to `CC(C)c1cc(N[C@@H](CO)C(N)=O)n2nccc2n1`, the cytotoxicity at 70.5 h stood at 31.2%.

Regarding `CC(NC(=O)c1ccc(=O)n(C)c1)c1ccccc1-n1cccn1` (stereo not given), the cytotoxicity at 70.5 h is -19.9%.

With `CCNC(=O)C1CCN(c2cc(-c3ccccc3F)nc3ccnn23)C1` (stereo not given), the cytotoxicity at 70.5 h came out at 14.5%.

In the case of `Cc1ccc(OC2(C(=O)O)CCN(C/C=C/c3ccco3)CC2)cn1`, the cytotoxicity at 70.5 h was -5.05%.

For the compound `Cc1oc(-c2ccoc2)nc1CN1CCC[C@H]1CO`, the cytotoxicity at 70.5 h is -3.95%.

Turning to `O=C(C1CNCCO1)N1CCC(c2cc(N3CCCC3)ncn2)CC1` (stereo not given), the cytotoxicity at 70.5 h stood at 14.8%.

With `CC(C)Cc1nc(CN2CCc3onc(-c4cccc(F)c4)c3C2)no1`, the cytotoxicity at 70.5 h was -2.69%.

As to `CC(C)[C@@H]1CN(CCOc2ccc(Cl)cc2)C[C@H]1NS(C)(=O)=O`, the cytotoxicity at 70.5 h is -3.97%.

Consider `O=C(c1scc2c1OCCO2)N1CCN(Cc2cccc(F)c2)CC1`, for which the cytotoxicity at 70.5 h was determined as 20.1%.

Consider `CN1CCN(Cc2ccccc2Cl)CC12CCC(=O)N(CC1CC1)CC2` (stereo not given), for which the cytotoxicity at 70.5 h amounted to 0.313%.

`CCc1nc(CN(C)C(=O)c2cc(CN(CC)CC)c(CC)o2)no1`: the cytotoxicity at 70.5 h is -11.7%.

For the compound `c1ccc(-c2ncc(CN3CCC4(CCNCC4)C3)cn2)cc1`, the cytotoxicity at 70.5 h is -7.74%.

For the compound `c1ccc(CNc2ncc(CN3CC[C@H]4CC[C@@H](C3)N4)cn2)cc1`, the cytotoxicity at 70.5 h turned out to be 18.2%.

Take `CCn1ncc(CN2CCCC(C(=O)c3ccc(Cl)cc3)C2)c1C` (stereo not given): the cytotoxicity at 70.5 h was -6.46%.

As for `NC(=O)CN1CC2(CCC1=O)CCN(Cc1ccccc1F)CC2`, the cytotoxicity at 70.5 h is -5.65%.

Regarding `CN(Cc1noc2c1CCCC2)C(=O)Nc1ccc2oc(=O)n(C)c2c1`, the cytotoxicity at 70.5 h was 20.6%.

As for `CSCCCNc1ncnc2cccc(F)c12`, the cytotoxicity at 70.5 h turned out to be 23.2%.

As for `CC(=O)c1cccc(OCc2cc(C(=O)N3CCCCO3)n[nH]2)c1`, the cytotoxicity at 70.5 h was -15.4%.

In the case of `COc1cccc2c1OCCCN(Cc1ccc(C(N)=O)c(=O)[nH]1)C2`, the cytotoxicity at 70.5 h was -8.27%.

As to `CCN(CC)CCn1cnc(-c2ccccc2)c1-c1ncc[nH]1`, the cytotoxicity at 70.5 h is -10.3%.

For the compound `Cc1cc(=O)c2ccccc2n1CC1CCCN(C)C1` (stereo not given), the cytotoxicity at 70.5 h worked out at 31.9%.

Consider `CCc1nc(C)c(CN2CCOC(Cc3ccccc3Cl)C2)[nH]1` (stereo not given), for which the cytotoxicity at 70.5 h is -6.82%.

`CC(C)(C)c1ncc2c(n1)CN(C(=O)c1ccc(-n3cnnn3)cc1)C2`: the cytotoxicity at 70.5 h was -3.62%.

With `CCc1ccc2nc(-c3cnn(C)c3)cc(C(=O)N3CCCC3)c2c1`, the cytotoxicity at 70.5 h was -5.34%.

`CCc1ocnc1C(=O)N1CCN(c2ccc3ccccc3c2)CC1`: the cytotoxicity at 70.5 h is 4.76%.

In the case of `Cc1nc(N(C)C)ncc1C(=O)N[C@@H]1CCc2ccccc21`, the cytotoxicity at 70.5 h was -11.5%.

For the compound `Cc1nnc(NC(=O)N2CCCCC2CCO)s1` (stereo not given), the cytotoxicity at 70.5 h was -0.98%.

On to `CCCn1cnnc1CN(C)C(=O)CCC(=O)Nc1cc(C)ccc1F`, for which the cytotoxicity at 70.5 h was -6.48%.

Turning to `CSCCC(=O)N1CCC(c2nccn2CCN(C)C)CC1`, the cytotoxicity at 70.5 h is -2.46%.

For `COCc1nc(CN2C(=O)OC[C@@H]2C(C)C)no1`, the cytotoxicity at 70.5 h is -6.26%.

`CCOc1ccccc1CN(CC)Cc1ccc(S(C)(=O)=O)cc1`: the cytotoxicity at 70.5 h is -5.03%.

As to `CN1CCCC(CCC(=O)N2CCc3onc(C(=O)N(C)C)c3C2)C1` (stereo not given), the cytotoxicity at 70.5 h is -1.71%.

For `CCC(CO)N(Cc1ccsc1)Cc1ccc(-c2ccn[nH]2)s1` (stereo not given), the cytotoxicity at 70.5 h was -5.61%.

For the compound `CCn1ccnc1CNc1nccc(-c2cn(C)nc2C)n1`, the cytotoxicity at 70.5 h is -2.79%.

Regarding `COc1ccc(OC2CCN(c3ccncc3)CC2)cc1`, the cytotoxicity at 70.5 h is -3.12%.

In the case of `CC(C)=CCCC1(C)CCC(=O)N(CCc2csc(N)n2)C1` (stereo not given), the cytotoxicity at 70.5 h was -5.28%.

Turning to `COC(=O)c1ccc(NC(=O)CNCc2ccco2)cc1`, the cytotoxicity at 70.5 h is -5.33%.

On to `Cc1noc(-c2ccc(N3CCCC(C(=O)c4nccn4C)C3)nc2)n1` (stereo not given), for which the cytotoxicity at 70.5 h was -8.49%.

With `CN(Cc1ccsc1)C(=O)c1n[nH]c(N)c1-c1ccccc1`, the cytotoxicity at 70.5 h is -1.37%.

As for `COc1ccc2c(c1)C(C(=O)N(C)CCCc1cnn(C)c1)CC(=O)N2` (stereo not given), the cytotoxicity at 70.5 h is -12.9%.

`CC(C)CC(=O)N1CCCCC(NC(=O)CCc2cccnc2)C1` (stereo not given): the cytotoxicity at 70.5 h is -1.04%.

Consider `Cc1cc(C)n(CC(C)Nc2nc(C)nc3c2CCNC3)n1` (stereo not given), for which the cytotoxicity at 70.5 h is -8.55%.

Consider `Cc1cnc(N2CCCC3(CCOCC3)C2)nc1`, for which the cytotoxicity at 70.5 h was -1.55%.

Consider `CN(C)c1ccc(C(=O)N2Cc3cnc(C(C)(C)C)nc3C2)cc1`, for which the cytotoxicity at 70.5 h is -2.91%.

As for `CC(C)c1noc(CN(C)C(=O)C2COc3ccccc3C2)n1` (stereo not given), the cytotoxicity at 70.5 h was -7.56%.

Turning to `CC(c1ccon1)N(C)Cc1cc(O)c2cc(F)ccc2n1` (stereo not given), the cytotoxicity at 70.5 h is -10.6%.

Turning to `CC(C)[C@H]1CN(S(=O)(=O)c2cccnc2)C[C@@H]1N`, the cytotoxicity at 70.5 h turned out to be 0.829%.

Regarding `COc1cccc(OCCN2CC[C@@](O)(C3CCOCC3)[C@H](C)C2)c1`, the cytotoxicity at 70.5 h came out at 1.27%.

Consider `CCc1ccccc1OCCN(C)C(=O)CCN1CCCO1`, for which the cytotoxicity at 70.5 h is -3.75%.

In the case of `OCCC1CN(c2ncnc3[nH]cnc23)CCN1Cc1cccs1` (stereo not given), the cytotoxicity at 70.5 h was -3.01%.

As for `Cc1cccc(CN2C[C@H]3CC[C@@H]2CN(Cc2[nH]cnc2C)C3)n1`, the cytotoxicity at 70.5 h was -5.25%.

For the compound `CCc1cn[nH]c1C1CCN(c2cc(C)c3cc(OC)ccc3n2)CC1`, the cytotoxicity at 70.5 h was found to be 1.76%.

For `COCCN1CCC(CNc2nccc(-c3cnn(C)c3)n2)CC1`, the cytotoxicity at 70.5 h was -3.27%.

Regarding `Fc1ccc(Cn2ncc3c2CN(c2ncccn2)C3)cc1`, the cytotoxicity at 70.5 h is -0.987%.

As for `Cc1cc2cccc(NC(=O)N3CCC(N4CCSCC4)CC3)c2o1`, the cytotoxicity at 70.5 h was -11%.

For the compound `CC(C)OC(=O)N1CCCC(c2nccn2Cc2ccncc2)C1` (stereo not given), the cytotoxicity at 70.5 h was -8%.

As for `O=C1CCC2(CCCN(C(=O)c3ccc[nH]3)C2)CN1Cc1cccnc1` (stereo not given), the cytotoxicity at 70.5 h was -3.97%.

In the case of `COc1nc2ccn(CCc3cc(O)nc(C)n3)c(=O)c2cc1C#N`, the cytotoxicity at 70.5 h was -7.61%.

In the case of `CN(C)C(=O)CN1CC=C(c2cnn(Cc3ccccc3)c2)CC1`, the cytotoxicity at 70.5 h was -15.3%.

As for `O=C(O)c1ccnc(-c2ccnc(NCCc3ccc(F)cc3)n2)c1`, the cytotoxicity at 70.5 h is -5.83%.

Regarding `COc1nc2c(cc1C(=O)NCCc1nc3ccccc3s1)CCC2`, the cytotoxicity at 70.5 h was -6.58%.
